We go through eleven compounds from patent publication US11208386B2, “Inhibitors of protein arginine deiminases (PADs) and methods of preparation and use thereof” (University of Massachusetts, priority 2016, dated 2021).

Each structure is given as a SMILES string.

Holding throughout (type): biochemical
For test [1], the target named is T1, PAD1 (Homo sapiens, UniProt Q9ULC6).
T1 construct: made in house
T1 sequence (Q9ULC6 1-663): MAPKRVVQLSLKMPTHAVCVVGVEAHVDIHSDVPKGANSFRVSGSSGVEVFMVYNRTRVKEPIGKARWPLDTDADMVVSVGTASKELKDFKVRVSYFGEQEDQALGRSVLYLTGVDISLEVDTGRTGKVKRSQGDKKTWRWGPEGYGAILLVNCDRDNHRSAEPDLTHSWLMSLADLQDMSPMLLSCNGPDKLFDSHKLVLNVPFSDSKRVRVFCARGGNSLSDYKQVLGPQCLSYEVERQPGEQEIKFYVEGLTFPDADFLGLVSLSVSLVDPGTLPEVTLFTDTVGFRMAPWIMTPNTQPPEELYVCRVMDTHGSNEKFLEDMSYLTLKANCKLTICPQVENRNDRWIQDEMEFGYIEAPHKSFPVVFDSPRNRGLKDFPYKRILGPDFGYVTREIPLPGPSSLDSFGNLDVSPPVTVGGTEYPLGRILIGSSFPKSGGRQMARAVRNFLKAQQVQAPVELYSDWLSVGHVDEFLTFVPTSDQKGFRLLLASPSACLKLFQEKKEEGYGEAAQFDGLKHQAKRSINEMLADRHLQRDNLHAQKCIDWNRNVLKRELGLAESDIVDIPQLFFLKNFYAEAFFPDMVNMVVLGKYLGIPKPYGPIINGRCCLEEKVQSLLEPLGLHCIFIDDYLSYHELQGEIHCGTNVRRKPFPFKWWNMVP
Put plainly: Inactivation kinetics, PAD1. The settings on record: for kinact/KI: a: single kobs determined, b: from a linear fit; for Fold PAD1 Selectivity: kinact/KI relative to least inhibited isozyme (1.0). The method, then: (§1) Inactivation kinetic parameters were determined by incubating PAD1, 2, or 4 (2.0 μM) or PAD3 (5.0 μM) in a pre-warmed (10 min; 37° C.) inactivation mixture (50 mM HEPES, 10 mM CaCl2, and 2 mM DTT, pH 7.6, with a final volume of 60 μL) containing various concentrations of inhibitor. Aliquots were removed at various time points and added to a pre-warmed (10 min, 37° C.) reaction mixture (50 mM HEPES, 50 mM NaCl, 10 mM CaC2, 2 mM DTT, and 10 mM BAEE or 10 mM BAA in the case of PAD3; pH 7.6). After 15 min, reactions were quenched in liquid nitrogen and citrulline production quantified using the COLDER assay. […] In Vitro Labeling of PADs with “Clickable” Probes BB-F-Yne (5u), BB-Cl-Yne (5v) and BIFYne (5w)

In test [2] the target is T2, PAD2 (Homo sapiens, UniProt Q9Y2J8).
T2 construct: made in house
Description: Inactivation kinetics, PAD2. The settings on record: for kinact/KI: a: single kobs determined, b: from a linear fit, other footnotes: from kinact and KI; for Fold PAD2 Selectivity: kinact/KI relative to least inhibited isozyme (1.0). The method, then: as §1

The target of test [3] is T3, PAD3 (Homo sapiens, UniProt Q9ULW8).
T3 construct: made in house
T3 sequence (Q9ULW8 1-664): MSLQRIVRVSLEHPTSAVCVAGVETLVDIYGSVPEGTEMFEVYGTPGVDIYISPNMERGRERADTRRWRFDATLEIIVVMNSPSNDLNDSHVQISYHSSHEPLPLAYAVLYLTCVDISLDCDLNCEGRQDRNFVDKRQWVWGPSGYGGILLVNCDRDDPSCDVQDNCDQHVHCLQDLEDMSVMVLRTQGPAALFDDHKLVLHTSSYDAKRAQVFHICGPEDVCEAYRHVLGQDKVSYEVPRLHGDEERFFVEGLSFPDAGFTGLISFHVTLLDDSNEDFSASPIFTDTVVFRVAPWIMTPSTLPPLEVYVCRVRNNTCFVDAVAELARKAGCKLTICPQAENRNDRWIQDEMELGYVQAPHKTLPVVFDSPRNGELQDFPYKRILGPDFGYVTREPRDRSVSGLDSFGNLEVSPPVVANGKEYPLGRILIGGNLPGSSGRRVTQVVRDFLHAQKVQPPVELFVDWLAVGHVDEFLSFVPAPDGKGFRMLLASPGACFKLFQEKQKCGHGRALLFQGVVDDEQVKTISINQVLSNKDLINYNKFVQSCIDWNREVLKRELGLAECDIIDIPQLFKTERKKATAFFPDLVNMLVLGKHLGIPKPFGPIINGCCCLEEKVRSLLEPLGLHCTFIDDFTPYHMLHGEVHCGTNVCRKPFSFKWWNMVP
Description: Inactivation kinetics, PAD3. The settings on record: for kinact/KI: a: single kobs determined; for Fold PAD3 Selectivity: kinact/KI relative to least inhibited isozyme (1.0). The method, then: as §1

The target in test [4] is T4, PAD4 (Homo sapiens, UniProt Q9UM07).
T4 construct: made in house
Description: Inactivation kinetics, PAD4. The settings on record: for kinact/KI: a: single kobs determined, b: from a linear fit; for Fold PAD4 Selectivity: kinact/KI relative to least inhibited isozyme (1.0). As to the method: as §1

T2 sequence (Q9Y2J8 whole entry): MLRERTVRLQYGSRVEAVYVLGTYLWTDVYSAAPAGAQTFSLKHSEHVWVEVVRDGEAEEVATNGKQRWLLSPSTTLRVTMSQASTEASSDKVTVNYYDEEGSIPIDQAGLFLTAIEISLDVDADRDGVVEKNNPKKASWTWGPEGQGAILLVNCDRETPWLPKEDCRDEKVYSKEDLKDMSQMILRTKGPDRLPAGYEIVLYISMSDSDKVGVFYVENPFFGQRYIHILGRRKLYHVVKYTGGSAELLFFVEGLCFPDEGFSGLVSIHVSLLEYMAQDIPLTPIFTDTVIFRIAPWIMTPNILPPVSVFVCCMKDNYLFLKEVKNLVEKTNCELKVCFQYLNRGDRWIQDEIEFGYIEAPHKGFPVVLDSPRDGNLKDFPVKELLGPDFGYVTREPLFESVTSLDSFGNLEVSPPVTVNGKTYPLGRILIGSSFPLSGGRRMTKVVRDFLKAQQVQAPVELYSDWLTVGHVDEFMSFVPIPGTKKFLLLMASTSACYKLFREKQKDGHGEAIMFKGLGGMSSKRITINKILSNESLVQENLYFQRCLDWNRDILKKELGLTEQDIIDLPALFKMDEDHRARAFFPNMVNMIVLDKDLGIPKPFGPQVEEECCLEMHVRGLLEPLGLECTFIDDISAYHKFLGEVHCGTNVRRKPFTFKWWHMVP
T4 sequence (Q9UM07 whole entry): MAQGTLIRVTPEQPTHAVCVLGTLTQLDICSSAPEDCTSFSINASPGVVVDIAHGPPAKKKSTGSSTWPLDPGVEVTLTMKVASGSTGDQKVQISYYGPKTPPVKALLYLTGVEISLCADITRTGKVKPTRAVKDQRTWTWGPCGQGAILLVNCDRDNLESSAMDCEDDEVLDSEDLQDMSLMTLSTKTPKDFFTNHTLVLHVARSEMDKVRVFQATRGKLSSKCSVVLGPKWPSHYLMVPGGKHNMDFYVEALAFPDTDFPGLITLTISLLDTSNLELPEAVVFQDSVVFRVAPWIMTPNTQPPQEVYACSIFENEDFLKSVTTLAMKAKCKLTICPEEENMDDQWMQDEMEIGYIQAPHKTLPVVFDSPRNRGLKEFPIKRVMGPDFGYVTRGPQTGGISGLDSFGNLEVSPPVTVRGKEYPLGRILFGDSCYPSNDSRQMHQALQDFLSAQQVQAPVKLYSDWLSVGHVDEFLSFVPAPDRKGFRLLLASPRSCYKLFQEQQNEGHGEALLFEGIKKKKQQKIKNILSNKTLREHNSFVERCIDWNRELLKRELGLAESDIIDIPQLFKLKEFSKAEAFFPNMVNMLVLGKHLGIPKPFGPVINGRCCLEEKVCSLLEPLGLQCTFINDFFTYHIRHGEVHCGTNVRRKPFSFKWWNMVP

Take `Cn1c([C@H](CCCNC(=N)CF)NC(=O)c2ccc(-c3ccccc3)cc2)nc2ccccc21` [Compound 5g, N1-[1,4′-Phenyl]benzoyl-N5-(2-fluoro-1-iminoethyl)-1-(1-methyl-benzo[d]imidazol-2-yl)-L-ornithine]: in test [1], the inactivation efficiency (kinact/KI) was 21.3 M⁻¹ s⁻¹ and the “Fold PAD1 Selectivity” value is recorded as 2.8 fold. In test [2], the kinact/KI was 13.7 M⁻¹ s⁻¹ and the “Fold PAD2 Selectivity” value is recorded as 1.8 fold. In addition, in test [3], the kinact/KI was 26.7 M⁻¹ s⁻¹ and the “Fold PAD3 Selectivity” value was 3.6 fold. Besides, in test [4], the second-order inactivation constant (kinact/KI) was 7.5 M⁻¹ s⁻¹ and the “Fold PAD4 Selectivity” value came to 1.0 fold.

For the compound `Cn1c([C@H](CCCNC(=N)CCl)NC(=O)c2ccc(-c3ccccc3)cc2)nc2ccccc21` [Compound 5h, N1-[1,4′-Phenyl]benzol-N5-(2-chloro-1-iminoethyl)-1-(1-methyl-benzo[d]imidazol-2-yl)-L-ornithine], in test [1], the kinact/KI was 112 M⁻¹ s⁻¹ and the “Fold PAD1 Selectivity” value is listed as 2.8 fold. Also, in test [2], the kinact/KI is 40.5 M⁻¹ s⁻¹ and the “Fold PAD2 Selectivity” value is 1.0 fold. Besides, in test [3], the kinact/KI is 100 M⁻¹ s⁻¹ and the “Fold PAD3 Selectivity” value is 2.5 fold. In addition, in test [4], the second-order inactivation constant (kinact/KI) was 51.8 M⁻¹ s⁻¹ and the “Fold PAD4 Selectivity” value stood at 1.3 fold.

`CCn1c([C@H](CCCNC(=N)CF)NC(=O)c2ccc(-c3ccccc3)cc2)nc2ccccc21` [Compound 5i, N1-[1,4′-Phenyl]benzoyl-N5-(2-fluoro-1-iminoethyl)-1-(1-ethyl-benzo[d]imidazol-2-yl)-L-omithine]: in test [1], the second-order inactivation constant (kinact/KI) was 12.7 M⁻¹ s⁻¹ and the “Fold PAD1 Selectivity” value was 25 fold. In addition, in test [2], the inactivation efficiency (kinact/KI) is 19.3 M⁻¹ s⁻¹ and the “Fold PAD2 Selectivity” value amounted to 39 fold. Moreover, in test [3], the kinact/KI was 30 M⁻¹ s⁻¹ and the “Fold PAD3 Selectivity” value turned out to be 60 fold. Besides, in test [4], the kinact/KI is 0.5 M⁻¹ s⁻¹ and the “Fold PAD4 Selectivity” value is reported as 1.0 fold.

For the compound `CCn1c([C@H](CCCNC(=N)CCl)NC(=O)c2ccc(-c3ccccc3)cc2)nc2ccccc21` [Compound 5j, N1-[1,4′-Phenyl]benzoyl-N5-(2-chloro-1-iminoethyl)-1-(1-ethyl-benzo[d]imidazol-2-yl)-L-ornithine], in test [1], the second-order inactivation constant (kinact/KI) was 84.3 M⁻¹ s⁻¹ and the “Fold PAD1 Selectivity” value was determined as 1.2 fold. For the same compound, in test [2], the second-order inactivation constant (kinact/KI) was 80.8 M⁻¹ s⁻¹ and the “Fold PAD2 Selectivity” value worked out at 1.2 fold. In test [3], the kinact/KI was 284 M⁻¹ s⁻¹ and the “Fold PAD3 Selectivity” value came to 4.1 fold. Further, in test [4], the second-order inactivation constant (kinact/KI) was 69.2 M⁻¹ s⁻¹ and the “Fold PAD4 Selectivity” value came to 1.0 fold.

On to `CC(C)n1c([C@H](CCCNC(=N)CF)NC(=O)c2ccc(-c3ccccc3)cc2)nc2ccccc21` [Compound 5k, N1-[1,4′-Phenyl]benzoyl-N5-(2-fluoro-1-iminoethyl)-1-(1-isopropyl-benzo[d]imidazol-2-yl)-L-ornithine], for which, in test [1], the kinact/KI was 0.333 M⁻¹ s⁻¹ and the “Fold PAD1 Selectivity” value was 1.0 fold. Further, in test [2], the second-order inactivation constant (kinact/KI) is 11.3 M⁻¹ s⁻¹ and the “Fold PAD2 Selectivity” value amounted to 34 fold. For the same compound, in test [3], the second-order inactivation constant (kinact/KI) is 28.3 M⁻¹ s⁻¹ and the “Fold PAD3 Selectivity” value was found to be 85 fold. In addition, in test [4], the inactivation efficiency (kinact/KI) was 0.333 M⁻¹ s⁻¹ and the “Fold PAD4 Selectivity” value is 1.0 fold.

In the case of `CC(C)n1c([C@H](CCCNC(=N)CCl)NC(=O)c2ccc(-c3ccccc3)cc2)nc2ccccc21` [Compound 5l, N1-[1,4′-Phenyl]benzoyl-N5-(2-chloro-1-iminoethyl)-1-(1-isopropyl-benzo[d]imidazol-2-yl)-L-ornithine], in test [1], the inactivation efficiency (kinact/KI) was 20.3 M⁻¹ s⁻¹ and the “Fold PAD1 Selectivity” value is given as 1.3 fold. In addition, in test [2], the kinact/KI is 24.8 M⁻¹ s⁻¹ and the “Fold PAD2 Selectivity” value was found to be 1.6 fold. Also, in test [3], the kinact/KI was 192 M⁻¹ s⁻¹ and the “Fold PAD3 Selectivity” value worked out at 12 fold. In test [4], the second-order inactivation constant (kinact/KI) was 15.8 M⁻¹ s⁻¹ and the “Fold PAD4 Selectivity” value is 1.0 fold.

On to `COc1cccc2c1nc([C@H](CCCNC(=N)CF)NC(=O)c1ccc(-c3ccccc3)cc1)n2C` [Compound 5m, N1-[1,4′-Phenyl]benzoyl-N5-(2-fluoro-1-iminoethyl)-1-(4-methoxy-1-methyl-benzo[d]imidazol-2-yl)-L-omithine], for which, in test [1], the inactivation efficiency (kinact/KI) was 31.2 M⁻¹ s⁻¹ and the “Fold PAD1 Selectivity” value was 2.4 fold. Moreover, in test [2], the inactivation efficiency (kinact/KI) was 132 M⁻¹ s⁻¹ and the “Fold PAD2 Selectivity” value was determined as 10 fold. Also, in test [3], the kinact/KI is 48.3 M⁻¹ s⁻¹ and the “Fold PAD3 Selectivity” value is listed as 3.7 fold. In test [4], the kinact/KI was 13.2 M⁻¹ s⁻¹ and the “Fold PAD4 Selectivity” value came to 1.0 fold.

With `COc1cccc2c1nc([C@H](CCCNC(=N)CCl)NC(=O)c1ccc(-c3ccccc3)cc1)n2C` [Compound 5n, N1-[1,4′-Phenyl]benzoyl-N5-(2-chloro-1-iminoethyl)-1-(4-methoxy-1-methyl-benzo[d]imidazol-2-yl)-L-ornithine], in test [1], the kinact/KI is 580 M⁻¹ s⁻¹ and the “Fold PAD1 Selectivity” value came to 6.3 fold. Besides, in test [2], the inactivation efficiency (kinact/KI) was 463 M⁻¹ s⁻¹ and the “Fold PAD2 Selectivity” value is 5.1 fold. Further, in test [3], the kinact/KI was 91.7 M⁻¹ s⁻¹ and the “Fold PAD3 Selectivity” value was 1.0 fold. In test [4], the kinact/KI is 132 M⁻¹ s⁻¹ and the “Fold PAD4 Selectivity” value is given as 1.4 fold.

Consider `N=C(CF)NCCC[C@H](NC(=O)c1ccc(-c2ccc(F)cc2)cc1)c1nc2ccccc2[nH]1` [Compound 5o], for which, in test [1], the kinact/KI is 23.3 M⁻¹ s⁻¹ and the “Fold PAD1 Selectivity” value is 1.0 fold. In addition, in test [2], the kinact/KI was 28.3 M⁻¹ s⁻¹ and the “Fold PAD2 Selectivity” value amounted to 1.2 fold. Besides, in test [3], the kinact/KI is 27 M⁻¹ s⁻¹ and the “Fold PAD3 Selectivity” value turned out to be 1.2 fold. In test [4], the second-order inactivation constant (kinact/KI) is 53.3 M⁻¹ s⁻¹ and the “Fold PAD4 Selectivity” value is listed as 2.3 fold.

Turning to `N=C(CCl)NCCC[C@H](NC(=O)c1ccc(-c2ccc(F)cc2)cc1)c1nc2ccccc2[nH]1` [Compound 5p, N1-4′-F-[1,1′-Phenyl]benzol-N5-(2-chloro-1-iminoethyl)-1-(1H-benzo[d]imidazol-2-yl)-L-ornithine], in test [1], the kinact/KI is 343 M⁻¹ s⁻¹ and the “Fold PAD1 Selectivity” value is 3.7 fold. In addition, in test [2], the inactivation efficiency (kinact/KI) is 91.7 M⁻¹ s⁻¹ and the “Fold PAD2 Selectivity” value was determined as 1.0 fold. Also, in test [3], the kinact/KI is 176 M⁻¹ s⁻¹ and the “Fold PAD3 Selectivity” value amounted to 1.9 fold. In test [4], the kinact/KI is 280 M⁻¹ s⁻¹ and the “Fold PAD4 Selectivity” value was determined as 3.1 fold.

For `N=C(CF)NCCC[C@H](NC(=O)c1ccc(-c2ccccc2)cc1)c1nc2cc(F)c(F)cc2[nH]1` [Compound 5q, N1-[1,1′-Phenyl]benzoyl-N5-(2-fluoro-1-iminoethyl)-1-(5,6-difluoro-1H-benzo[d]imidazol-2-yl)-L-ornithine], in test [1], the second-order inactivation constant (kinact/KI) is 31 M⁻¹ s⁻¹ and the “Fold PAD1 Selectivity” value worked out at 1.2 fold. Besides, in test [2], the second-order inactivation constant (kinact/KI) is 26.2 M⁻¹ s⁻¹ and the “Fold PAD2 Selectivity” value came out at 1.0 fold. In test [3], the kinact/KI was 25.5 M⁻¹ s⁻¹ and the “Fold PAD3 Selectivity” value is given as 1.0 fold. For the same compound, in test [4], the kinact/KI is 60 M⁻¹ s⁻¹ and the “Fold PAD4 Selectivity” value came to 2.4 fold.
